From PMC9778238, “How Discoloration of Porcine Cruor Hydrolysate Allowed the Identification of New Antifungal Peptides” (Foods, 2022)
Like-named read-outs stand apart in the source and are kept apart here. Ends that are not written are not given here.

Assays:
[1] = RP-UPLC-MS/MS peptide profile, retention time; format: physicochemical; conditions: Poroshell 120 EC-C18, water/acetonitrile with 0.1% formic acid, B 1–13% in 6 min, 35% at 25 min, 100% at 35 min, 23 °C, 500 µL/min, early elution read as high polarity, late as higher hydrophobicity
From the text: RP-UPLC coupled with MS/MS Q-TOF system was used to separate, identify, and characterize the peptide population, present in the porcine cruor hydrolysates. RP-UPLC tests were operated using a 1290 Infinity II UPLC (Agilent Technologies, Santa Clara, CA, USA), following the method proposed by. This chromatography instrument was composed of a binary pump (G7120A), a multisampler (G7167B), an in-line degasser and a variable wavelength detector (VWD G7114B) adjusted to 214 nm. […] Then, solvent B ramped to 100% until 35 min and was maintained for 10 min before returning to initial conditions. The cruor hydrolysate samples (2% protein (w/v)) were filtered through 0.22 µm PVDF filter and a volume of 0.25 µL was loaded onto a Poroshell 120 EC-C18 column (2.1 × 100 mm i.d., 2.7 micron, Agilent, Santa Clara, CA, USA) at a flow rate of 500 µL/min.
The determination of the accurate mass was performed using a hybrid ion mobility quadrupole time of flight mass spectrometer (6560 high-definition mass spectrometry (IM-Q-TOF), Agilent, Santa Clara, CA, USA). Calibration was completed using an ESI-L low concentration tuning mix (G1969-85000, Agilent Technologies, Santa Clara, CA, USA). Nitrogen was selected as the drying (13.0 L/min, 150 °C) and nebulizer gas (30 psi). The voltages were set at 3500 V for the capillary, 300 V for the nozzle and 400 V for the fragmentor. Positive mode at Extended Dynamic Range, 2 Ghz, 3200 m/z was used to record signals. Data acquisition and analysis were performed using the Agilent Mass Hunter Software package (LC/MS Data Acquisition, Version B.08.00 and Qualitative Analysis for IM-MS, Version B.07.00 Service Pack 2 with BioConfirm Software and BioConfirm, Version 10.0). A false discovery rate of 1% was used for extraction of biomolecules. […] Finally, these peptides were compared with bioactive peptides already known in the literature or analyzed with a predictive antimicrobial database.

R. mucilaginosa = format: cell-based, Rhodotorula mucilaginosa
Description: (§1) The peptide synthesis was performed by Laboratoire Innodal (Lévis, QC, Canada). Fourteen peptides were synthesized by standard solid-phase peptide synthesis (SPPS) on an automated peptide synthesizer. Solubility of peptides was first tested on saline water with 0.85% NaCl. […] Each peptide was solubilized in a small volume of dimethylsulfoxide (DMSO), and water was subsequently added until a 10% (v/v) DMSO concentration was reached. The stock solution of each peptide was at a concentration of 2.5 mM. The pH of the final solution was below the isoelectric point of each peptide. […] Antifungal assays on synthesized peptides were realized using methods described below.
(§2) The antibacterial activity was tested against two indicator bacteria including Escherichia coli and Listeria ivanovii (Table 1). These two strains are Gram-negative and Gram-positive, respectively and are commonly sensitive strains. They were subcultured in Tryptic Soy Broth (TSB) two times for 18 h, at 37 °C for E. coli and 30 °C for L. ivanovii. The antifungal activity was evaluated against four filamentous molds and four yeasts (Table 1). All the strains for antifungal assays were chosen since they are the most often strains identified as spoilage microorganisms of food products, specifically in the meat industry. The 4 filamentous molds were subcultured on Potato Dextrose Agar (PDA) at 25 °C, for 7 days, 2 times. The 4 yeasts were subcultured in Potato Dextrose Broth (PDB) at 25 °C, for 48 h, 2 to 3 times (Table 1).
(§3) The minimum inhibitory concentration (MIC) of the hydrolysate that induces inhibition of the microorganism tested was determined according to Froidevaux et al.. To quantify the growth inhibition, 96-well microplate assays were performed using Mueller-Hinton broth (MH, BD-Difco, Sparks, MD, USA). Samples were micro-diluted from the stock concentration of 40 mg/mL of proteins. The inoculum was pre-diluted in MH at a concentration of 5 × 10^5 CFU/mL. Then, the microplate was incubated 24 h at 37 °C for E. coli and at 30 °C for L. ivanovii. The molds and yeasts strains were, respectively tested at 2 × 10^4 and 1 × 10^5 conidia or yeast per mL [32]. The automated cell counter was used to determine the concentration. The microplates were incubated for 48 h at 25 °C for the molds and R. mucilaginosa, and at 35 °C for the other yeast strains. The MIC was the lowest concentration that inhibited completely the microorganism growth. The growth was measured by absorbance at 595 nm (Infinite® F200 PRO, Tecan Inc., Durham, NC, USA).
(§4) Then, they were, respectively incubated for 24 h at 37 °C or 30 °C and 48 h at 25 °C. The lowest concentration that inhibited microorganism growth is the MBC or MFC.

Paecilomyces spp. = format: cell-based
Description: as §1, §2, §3, §4

[2] = synthesized peptides, stock 2.5 mM in 10% (v/v) DMSO, highest tested concentration 1.25 mM, 48 h at 25 °C, mean ± SD

For “LANVSTVLTSKYR [porcine hemoglobin fragment α 129–141]”, the “Retention Time” value [1] was 10.36 min.

In the case of “GAEALERMFLGFPT [porcine hemoglobin fragment α 25–38]”, the “Retention Time” value [1] is reported as 9.91 min.

With “FESFGDLSNAD [porcine hemoglobin fragment β 43–53]” the “Retention Time” value [1] was 12.20 min.

In the case of “ANVSTVLTSKYR [porcine hemoglobin fragment α 130–141]”, the “Retention Time” value [1] is reported as 8.45 min.

For “VLTSKYR [porcine hemoglobin fragment α 135–141]”, the “Retention Time” value [1] was 5.97 min.

For “LLVVYPWTQRF [porcine hemoglobin fragment β 32–42]”, the “Retention Time” value [1] was 19.00 min.

In the case of “SDLHAHKLRVDPVNF [porcine hemoglobin fragment α 84–98]”, the “Retention Time” value [1] is reported as 9.34 min.

In the case of “RMFLGFPTTKTYFPHF [porcine hemoglobin fragment α 31–46]”, the “Retention Time” value [1] is reported as 17.99 min.

In the case of “KLLSHCLLVTLAAHHPD [porcine hemoglobin fragment α 99–115]”, the “Retention Time” value [1] is reported as 11.10 min.

With “HVDPENFRLLGNVIV [porcine hemoglobin fragment β 98–112]” the “Retention Time” value [1] was 17.16 min.

LAHKYH [LAHKYH] gave an MFC (R. mucilaginosa; 48 h) of 1300 ± 0 µM, an MIC (R. mucilaginosa; 48 h) of 1250 µM and an MFC (Paecilomyces spp.; 48 h) of 1300 ± 0 µM. For the same substance, the MIC (Paecilomyces spp.; 48 h) was 1250 µM.

In the case of “FRLLGNVIVVVLARRLGHDFNPNVQ [porcine hemoglobin fragment β 104–128]”, the “Retention Time” value [1] is reported as 21.87 min.

In the case of “TSKYR [known antimicrobial peptide, porcine hemoglobin fragment α 137–141]”, the “Retention Time” value [1] is reported as 1.64 min.

In the case of “PNVQAAFQKVVAGVANALA [porcine hemoglobin fragment β 125–143]”, the “Retention Time” value [1] is reported as 11.10 min.

For “DPENFRLLGNVIVVVLA [porcine hemoglobin fragment β 100–116]”, the “Retention Time” value [1] was 11.10 min.

With “FESF [porcine hemoglobin fragment β 43–46]” the “Retention Time” value [1] was 9.60 min.

With “SNADAVMGNPKVKAH [porcine hemoglobin fragment β 50–64]” the “Retention Time” value [1] was 9.91 min.

With “HVDPENFRLLGNVIVVVLARRLGHDFNPNVQA [porcine hemoglobin fragment β 98–129, synthesized]” the “Retention Time” value [1] was 23.33 min.

In the case of “SFSDGLKHLDNLKGTFA [porcine hemoglobin fragment β 71–87]”, the “Retention Time” value [1] is reported as 12.90 min.

For “KLLSHCL [porcine hemoglobin fragment α 99–105]”, the “Retention Time” value [1] was 8.01 min.

In the case of “AAFQKVVAGVANA [porcine hemoglobin fragment β 129–141]”, the “Retention Time” value [1] is reported as 10.86 min.

Work on FRLLGNVIVVV yielded an MFC (R. mucilaginosa; 48 h) of 300 ± 0 µM, an MIC (R. mucilaginosa; 48 h) of 156 µM and an MFC (Paecilomyces spp.; 48 h) of 600 ± 0 µM. For the same substance, the MIC (Paecilomyces spp.; 48 h) was 625 µM.

In the case of “VTLAAHHPDDFNPSVHASLDKF [porcine hemoglobin fragment α 107–128]”, the “Retention Time” value [1] is reported as 11.37 min.

For “LERMFLGF [porcine hemoglobin fragment α 29–36]”, the “Retention Time” value [1] was 17.60 min.

With “HVDPENFRLLGNVIVVVLARRLGHDFNPNVQ [porcine hemoglobin fragment β 98–128, synthesized]” the “Retention Time” value [1] was 23.26 min.

For “STVLTSKYR [porcine hemoglobin fragment α 133–141]”, the “Retention Time” value [1] was 6.67 min.

For “VLSAADKANVKAAWGKVGGQAGAHGAEA [porcine hemoglobin fragment α 1–28]”, the “Retention Time” value [1] was 9.15 min.

For “VLSAADKANVKAAWGKVGGQAGAHGAEAL [porcine hemoglobin fragment α 1–29]”, the “Retention Time” value [1] was 10.86 min.

With “NLSHGSDQVKAHGQKVADALTKAVGHLDDLPGAL [porcine hemoglobin fragment α 47–80]” the “Retention Time” value [1] was 15.89 min.

For “FLGFPTTKTYFPHF [porcine hemoglobin fragment α 33–46]”, the “Retention Time” value [1] was 19.13 min.

For NALAHKYH, the MFC (R. mucilaginosa; 48 h) was 300 ± 0 µM, the MIC (R. mucilaginosa; 48 h) was 300 ± 0 µM and the MFC (Paecilomyces spp.; 48 h) was 300 ± 0 µM. The MIC (Paecilomyces spp.; 48 h) was 200 ± 0 µM.

In the case of “DQLHVDPENFRLLGNVIVVVLARRLGHDFNPNVQ [porcine hemoglobin fragment β 95–128]”, the “Retention Time” value [1] is reported as 24.79 min.

In the case of GHLDDLPGALSALSDLHAHKL, the MFC (R. mucilaginosa; 48 h) is reported as 600 ± 0 µM, the MIC (R. mucilaginosa; 48 h) is reported as 600 ± 0 µM and the MFC (Paecilomyces spp.; 48 h) is reported as 1700 ± 700 µM. It also gave an MIC (Paecilomyces spp.; 48 h) of 1300 ± 0 µM.

For “VLSAADKANVKAAWGKVGGQAGAHGAEALERM [porcine hemoglobin fragment α 1–32]”, the “Retention Time” value [1] was 12.14 min.

In the case of “KLLSHCLL [porcine hemoglobin fragment α 99–106]”, the “Retention Time” value [1] is reported as 10.93 min.

For “LSDLHAHKLRVDPVNF [porcine hemoglobin fragment α 83–98]”, the “Retention Time” value [1] was 10.23 min.

For “PTTKTYFPHF [porcine hemoglobin fragment α 37–46]”, the “Retention Time” value [1] was 12.01 min.

With “LGFPTTKTYFPHF [porcine hemoglobin fragment α 34–46]” the “Retention Time” value [1] was 16.46 min.

In the case of HVDPEN, the MIC (R. mucilaginosa; [2]) is reported as “not active” and the MIC (Paecilomyces spp.; [2]) is reported as “not active”.

HVDPENFRLLGNVIVVVL showed an MFC (R. mucilaginosa; 48 h) of 300 ± 100 µM, an MIC (R. mucilaginosa; 48 h) of 100 ± 50 µM and an MIC (Paecilomyces spp.; 48 h) greater than 1300 ± 0 µM.

With “SFGDLSNADAVMGNPKVK [porcine hemoglobin fragment β 45–62]” the “Retention Time” value [1] was 12.90 min.

For “CLLVTLAAHHPDDFNPS [porcine hemoglobin fragment α 104–120]”, the “Retention Time” value [1] was 12.90 min.

In the case of “GLWGKVNVDEVGGEALGRL [porcine hemoglobin fragment β 14–32]”, the “Retention Time” value [1] is reported as 16.84 min.

In the case of “ERMFLGF [porcine hemoglobin fragment α 30–36]”, the “Retention Time” value [1] is reported as 16.27 min.

With “ERMFLGFPTTKTYFPHF [porcine hemoglobin fragment α 30–46]” the “Retention Time” value [1] was 18.24 min.

With “TVLTSKYR [porcine hemoglobin fragment α 134–141]” the “Retention Time” value [1] was 6.54 min.

With “LVVYPWTQRF [porcine hemoglobin fragment β 33–42]” the “Retention Time” value [1] was 16.65 min.
